Results on 27 molecules are retold here after patent publication US20150119394A1, “Insulin-Like Growth Factor-1 Receptor Inhibitors” (Merck Sharp & Dohme Corp., priority 2012, published 2015).

For this assay, the target named is T1, intracellular kinase domain of human IGF-1R (GST fusion protein) (Homo sapiens, UniProt P08069).
T1 construct: IGFRK and IRK enzyme used for the assay was intracellular kinase domain of human IGF-1R; GST; made in house
T1 sequence (P08069 999-1274 limits assumed): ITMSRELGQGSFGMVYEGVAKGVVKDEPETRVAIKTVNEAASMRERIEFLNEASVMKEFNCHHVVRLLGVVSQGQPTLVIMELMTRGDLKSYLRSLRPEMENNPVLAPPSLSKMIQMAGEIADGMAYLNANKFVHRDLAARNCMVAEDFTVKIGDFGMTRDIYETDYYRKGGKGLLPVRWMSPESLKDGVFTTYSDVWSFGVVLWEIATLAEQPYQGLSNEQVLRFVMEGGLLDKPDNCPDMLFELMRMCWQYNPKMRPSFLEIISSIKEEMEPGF
The experiment in a line: In vitro IGF-1R kinase assay (HTRF). It counts as biochemical. The following applies: ATP 20 μM, IGFRK 0.25 nM. As for the experimental part:
The in vitro kinase assays using IGF-1R and IR kinase GST fusion proteins were conducted using a homogeneous time-resolved fluorescence (HTRF) format. Kinase reactions were carried out in a 384-well plate format in a final volume of 20 μL. The standard enzyme reaction buffer consisted of 50 mM Tris HCL (pH: 7.4), 1 mM EGTA, 10 mM MgCl2, 2 mM DTT, 0.01% Tween-20, IGF-1R/IR kinase enzyme, poly GT peptide substrate (Perkin Elmer [Ulight Glu-Tyr (4:1)]n) and ATP [concentration equivalent to Kmapp] […] Briefly, 2.5 μL enzyme and 2.5 μL inhibitor was preincubated for 10 minutes at 23° C. followed by the addition of 2.5 μL of poly GT substrate (final concentration of 50 nM). Reaction was initiated with the addition of 2.5 μL of ATP (final concentration of 20 μM for IGF-1R assay and 10 μM for IR assay). After 1 hour incubation at 23° C., the kinase reaction was stopped with the addition of 5 μL EDTA (final concentration of 10 mM in 20 μL). Europium cryptate—labeled antiphosphotyrosine antibody PY20 (5 μL) was added (final concentration of 2 nM) and the mixture was allowed to equilibrate for 1 hour at 23° C. followed by reading the plate in an Envision plate reader.
The intensity of light emission at 665 nm was directly proportional to the level of substrate phosphorylation. The IC50 values for inhibitors were determined by a four-parameter sigmoidal curve fit (Sigma plot or Graph pad).
IGFRK and IRK enzyme used for the assay was intracellular kinase domain of human IGF-1R and human IR cloned and expressed as GST fusion proteins using the baculovirus expression system and purified using glutathione—Sepharose column.
A general note: Time-resolved FRET reads energy transfer from a long-lived donor to a nearby acceptor.
As usually defined, the IC50 is the concentration that gives 50% inhibition. Molecule `Cc1ccccc1-c1ccc(OC[C@@H]2CN(S(=O)(=O)c3c(C(N)=O)[nH]c4ccc(Cl)cc34)CCO2)cc1` [Compound 41, (S)-5-chloro-3-((2-(((2′-methyl-[1,1′-biphenyl]-4-yl)oxy)methyl)morpholino)sulfonyl)-1H-indole-2-carboxamide] yielded an IC50 of 184 nM.

Take `Cc1cc(OC[C@@H]2CN(S(=O)(=O)c3c(C(N)=O)[nH]c4ccc(Cl)cc34)CCO2)ccc1-c1ccc(F)nc1` [Compound 73, (S)-5-chloro-3-((2-((4-(6-fluoropyridin-3-yl)-3-methylphenoxy)methyl)morpholino)sulfonyl)-1H-indole-2-carboxamide]: the IC50 is 30 nM. This IC50 is about 6.1-fold lower than that of the molecule before.

In the case of `Cc1cc(-c2cccc(OC[C@@H]3CN(S(=O)(=O)c4c(C(N)=O)[nH]c5ccc(Cl)cc45)CCO3)c2)ccn1` [Compound 19, (S)-5-chloro-3-((2-((3-(2-methylpyridin-4-yl)phenoxy)methyl)morpholino)sulfonyl)-1H-indole-2-carboxamide], the IC50 came out at 2.9 nM.

Molecule `NC(=O)c1[nH]c2ccc(Cl)cc2c1S(=O)(=O)N1CCO[C@H](COc2cnc(-c3ccccc3)cn2)C1` [Compound 77, (S)-5-chloro-3-((2-(((5-phenylpyrazin-2-yl)oxy)methyl)morpholino)sulfonyl)-1H-indole-2-carboxamide] displayed a half-maximal inhibitory concentration (IC50) of 204 nM.

As for `NC(=O)c1[nH]c2ccc(Cl)cc2c1S(=O)(=O)N1CCO[C@H](COc2ccc(F)c(-c3cncnc3)c2)C1` [Compound 27, (S)-5-chloro-3-((2-((4-fluoro-3-(pyrimidin-5-yl)phenoxy)methyl)morpholino)sulfonyl)-1H-indole-2-carboxamide], the IC50 stood at 4.7 nM.

As for `NC(=O)c1[nH]c2ccc(Cl)cc2c1S(=O)(=O)N1CCO[C@H](COc2ccc(-c3ccccc3F)cc2)C1` [Compound 42, (S)-5-chloro-3-((2-(((2′-fluoro-[1,1′-biphenyl]-4-yl)oxy)methyl)morpholino)sulfonyl)-1H-indole-2-carboxamide], half-maximal inhibition (IC50) was put at 119 nM.

For `NC(=O)c1[nH]c2ccc(Cl)cc2c1S(=O)(=O)N1CCO[C@H](COc2cccc(-c3ccccn3)c2)C1` [Compound 15, (S)-5-chloro-3-((2-((3-(pyridin-2-yl)phenoxy)methyl)morpholino)sulfonyl)-1H-indole-2-carboxamide], the IC50 amounted to 3.7 nM.

Turning to `CN(C)c1ccc(-c2ccc(OC[C@@H]3CN(S(=O)(=O)c4c(C(N)=O)[nH]c5ccc(Cl)cc45)CCO3)cc2)cn1` [Compound 34, (S)-5-chloro-3-((2-((4-(6-(dimethylamino)pyridin-3-yl)phenoxy)methyl)morpholino)sulfonyl)-1H-indole-2-carboxamide], the IC50 is over 1000 nM.

Take `Cc1ccc(OC[C@@H]2CN(S(=O)(=O)c3c(C(N)=O)[nH]c4ccc(Cl)cc34)CCO2)cc1-c1ccccc1F` [Compound 21, (S)-5-chloro-3-((2-(((2′-fluoro-6-methyl-[1,1′-biphenyl]-3-yl)oxy)methyl)morpholino)sulfonyl)-1H-indole-2-carboxamide]: the IC50 stood at 184 nM.

`NC(=O)c1[nH]c2ccc(Cl)cc2c1S(=O)(=O)N1CCO[C@H](COc2ccccc2-c2ccc(F)nc2)C1` [Compound 59, (S)-5-chloro-3-((2-((2-(6-fluoropyridin-3-yl)phenoxy)methyl)morpholino)sulfonyl)-1H-indole-2-carboxamide] displayed an IC50 of over 1000 nM.

Take `Cc1ccc(-c2ccc(OC[C@@H]3CN(S(=O)(=O)c4c(C(N)=O)[nH]c5ccc(Cl)cc45)CCO3)cc2)cn1` [Compound 52, (S)-5-chloro-3-((2-((4-(6-methylpyridin-3-yl)phenoxy)methyl)morpholino)sulfonyl)-1H-indole-2-carboxamide]: the IC50 is over 100 nM.

`NC(=O)c1[nH]c2ccc(Cl)cc2c1S(=O)(=O)N1CCO[C@H](COc2ccc(-c3cncnc3)cc2)C1` [Compound 48, (S)-5-chloro-3-((2-((4-(pyrimidin-5-yl)phenoxy)methyl)morpholino)sulfonyl)-1H-indole-2-carboxamide] displayed an IC50 of 4 nM.

In turn, `NC(=O)c1[nH]c2ccc(Cl)cc2c1S(=O)(=O)N1CCO[C@H](COc2cccc(-c3ccncc3)c2)C1` [Compound 2, (S)-5-chloro-3-((2-((3-(pyridin-4-yl)phenoxy)methyl)morpholino)sulfonyl)-1H-indole-2-carboxamide] returned an IC50 of 8.5 nM.

The molecule `NC(=O)c1[nH]c2ccc(Cl)cc2c1S(=O)(=O)N1CCO[C@H](COc2ccc(F)c(-c3ccncc3)c2)C1` [Compound 28, (S)-5-chloro-3-((2-((4-fluoro-3-(pyridin-4-yl)phenoxy)methyl)morpholino)sulfonyl)-1H-indole-2-carboxamide] yielded an IC50 of 6.9 nM.

`NC(=O)c1[nH]c2ccc(Cl)cc2c1S(=O)(=O)N1CCO[C@H](COc2ccccc2-c2cccnc2F)C1` [Compound 57, (S)-5-chloro-3-((2-((2-(2-fluoropyridin-3-yl)phenoxy)methyl)morpholino)sulfonyl)-1H-indole-2-carboxamide] gave a half-maximal inhibitory concentration (IC50) of over 1000 nM.

`NC(=O)c1[nH]c2ccc(Cl)cc2c1S(=O)(=O)N1CCO[C@H](COc2cc3ccccc3nn2)C1` [Compound 89, (S)-5-chloro-3-((2-((cinnolin-3-yloxy)methyl)morpholino)sulfonyl)-1H-indole-2-carboxamide]: the concentration for half-maximal inhibition (IC50) stood at 136 nM.

Consider `COc1ncc(-c2cccc(OC[C@@H]3CN(S(=O)(=O)c4c(C(N)=O)[nH]c5ccc(Cl)cc45)CCO3)c2)cn1` [Compound 16, (S)-5-chloro-3-((2-((3-(2-methoxypyrimidin-5-yl)phenoxy)methyl)morpholino)sulfonyl)-1H-indole-2-carboxamide], for which the IC50 was 2 nM.

As to `NC(=O)c1[nH]c2ccc(Cl)cc2c1S(=O)(=O)N1CCO[C@H](COc2ccccc2-c2cccnc2)C1` [Compound 55, (S)-5-chloro-3-((2-((2-(pyridin-3-yl)phenoxy)methyl)morpholino)sulfonyl)-1H-indole-2-carboxamide], the IC50 is over 1000 nM.

For the molecule `Cc1ncccc1-c1ccc(OC[C@@H]2CN(S(=O)(=O)c3c(C(N)=O)[nH]c4ccc(Cl)cc34)CCO2)cc1` [Compound 50, (S)-5-chloro-3-((2-((4-(2-methylpyridin-3-yl)phenoxy)methyl)morpholino)sulfonyl)-1H-indole-2-carboxamide], the IC50 was found to be 3.2 nM.

Turning to `NC(=O)c1[nH]c2ccc(Cl)cc2c1S(=O)(=O)N1CCO[C@H](COc2cccc(-c3ccc(F)cc3)c2)C1` [Compound 11, (S)-5-chloro-3-((2-(((4′-fluoro-[1,1′-biphenyl]-3-yl)oxy)methyl)morpholino)sulfonyl)-1H-indole-2-carboxamide], half-maximal inhibition (IC50) required 15.4 nM. Against the preceding molecule, the IC50 is about 4.8-fold higher.

Turning to `Cc1cc(-c2ccc(OC[C@@H]3CN(S(=O)(=O)c4c(C(N)=O)[nH]c5ccc(Cl)cc45)CCO3)cc2)cc(C)n1` [Compound 82, (S)-5-chloro-3-((2-((4-(2,6-dimethylpyridin-4-yl)phenoxy)methyl)morpholino)sulfonyl)-1H-indole-2-carboxamide], the IC50 came to 13.2 nM.

`Cc1cc(OC[C@@H]2CN(S(=O)(=O)c3c(C(N)=O)[nH]c4ccc(Cl)cc34)CCO2)ccc1-c1ccnc(F)c1` [Compound 72, (S)-5-chloro-3-((2-((4-(2-fluoropyridin-4-yl)-3-methylphenoxy)methyl)morpholino)sulfonyl)-1H-indole-2-carboxamide]: the IC50 came out at 13.3 nM.

The molecule `NC(=O)c1[nH]c2ccc(Cl)cc2c1S(=O)(=O)N1CCO[C@H](COc2ccccc2-c2ccccc2)C1` [Compound 54, (S)-3-((2-(([1,1′-biphenyl]-2-yloxy)methyl)morpholino)sulfonyl)-5-chloro-1H-indole-2-carboxamide] returned an IC50 of over 1000 nM.

`COc1ccccc1-c1ccccc1OC[C@@H]1CN(S(=O)(=O)c2c(C(N)=O)[nH]c3ccc(Cl)cc23)CCO1` [Compound 58, (S)-5-chloro-3-((2-(((2′-methoxy-[1,1′-biphenyl]-2-yl)oxy)methyl)morpholino)sulfonyl)-1H-indole-2-carboxamide] returned an IC50 of over 1000 nM.

Turning to `NC(=O)c1[nH]c2ccc(Cl)cc2c1S(=O)(=O)N1CCO[C@H](COc2cccc(-c3ccnc(Cl)c3)c2)C1` [Compound 85, (S)-5-chloro-3-((2-((3-(2-chloropyridin-4-yl)phenoxy)methyl)morpholino)sulfonyl)-1H-indole-2-carboxamide], the IC50 came out at 9.7 nM.

`NC(=O)c1[nH]c2ccc(Cl)cc2c1S(=O)(=O)N1CCO[C@H](COc2ccc(-c3ccccc3OC(F)(F)F)cc2)C1` [Compound 40, (S)-5-chloro-3-((2-(((2′-(trifluoromethoxy)-[1,1′-biphenyl]-4-yl)oxy)methyl)morpholino)sulfonyl)-1H-indole-2-carboxamide]: inhibition was half-maximal at 361 nM (IC50).

`COc1ccccc1-c1cc(OC[C@@H]2CN(S(=O)(=O)c3c(C(N)=O)[nH]c4ccc(Cl)cc34)CCO2)ccc1C` [Compound 23, (S)-5-chloro-3-((2-(((2′-methoxy-6-methyl-[1,1′-biphenyl]-3-yl)oxy)methyl)morpholino)sulfonyl)-1H-indole-2-carboxamide] displayed an IC50 of 132 nM.
